Patent US9084424B2, “N-benzyl heterocyclic carboxamides” (BAYER INTELLECTUAL PROPERTY GMBH, priority 2010, dated 2015)

Tests used:
[1] = log P by HPLC on reversed-phase column (EEC Directive 79/831 Annex V.A8); assay type: physicochemical; conditions: 0.1% aqueous formic acid and acetonitrile, linear gradient 10% to 90% acetonitrile
Experimental: In table 1, the log P values were determined in accordance with EEC Directive 79/831 Annex V.A8 by HPLC (High Performance Liquid Chromatography) on a reversed-phase column (C 18), using the method described below: Temperature: 40° C.; Mobile phases: 0.1% aqueous formic acid and acetonitrile; linear gradient from 10% acetonitrile to 90% acetonitrile. Calibration was carried out using unbranched alkan-2-ones (comprising 3 to 16 carbon atoms) with known log P values (determination of the log P values by the retention times using linear interpolation between two successive alkanones). lambda-max-values were determined using UV-spectra from 200 nm to 400 nm and the peak values of the chromatographic signals.

Sphaerotheca fuliginea = test: In vivo preventive test on Sphaerotheca fuliginea (cucumber); conditions: preventive spray, 500 ppm of active ingredient, evaluated 7 days after inoculation
Experimental: In Vivo Preventive Test on Sphaerotheca fuliginea (Cucumber)
(§1) Solvent: 49 parts by weight of N,N-dimethylformamide
(§2) Emulsifier: 1 part by weight of alkylarylpolyglycolether
(§3) To produce a suitable preparation of active compound, 1 part by weight of active compound is mixed with the stated amounts of solvent and emulsifier, and the concentrate is diluted with water to the desired concentration.
To test for preventive activity, young plants are sprayed with the preparation of active compound at the stated rate of application. After the spray coating has dried on, the plants are inoculated with an aqueous spore suspension of Sphaerotheca fuliginea. The plants are then placed in a greenhouse at approximately 23° C. and a relative atmospheric humidity of approximately 70%.
The test is evaluated 7 days after the inoculation. 0% means an efficacy which corresponds to that of the untreated control, while an efficacy of 100% means that no disease is observed.

Pyrenophora teres = test: In vivo preventive test on Pyrenophora teres (barley); conditions: preventive spray, 500 ppm of active ingredient, evaluated 7-9 days after inoculation
Experimental: In Vivo Preventive Test on Pyrenophora teres (Barley)
Solvent: 49 parts by weight of N,N-dimethylacetamid
(§4) Emulsifier: 1 part by weight of alkylaryl polyglycol ether
as §3
(§5) To test for preventive activity, young plants are sprayed with the preparation of active compound at the stated rate of application. One day after this treatment, the plants are inoculated with an aqueous spore suspension of Pyrenophora teres. The plants remain for 48 hours in an incubation cabinet at 22° C. and a relative atmospheric humidity of 100%. Then the plants are placed in a greenhouse at a temperature of approximately 20° C. and a relative atmospheric humidity of approximately 80%.
The test is evaluated 7-9 days after the inoculation. 0% means an efficacy which corresponds to that of the untreated control while an efficacy of 100% means that no disease is observed.

Alternaria solani = test: In vivo preventive test on Alternaria solani (tomato); conditions: preventive spray, 500 ppm of active ingredient, evaluated 7 days after inoculation
Experimental: In Vivo Preventive Test on Alternaria Solani (Tomato)
as §1, §2, §3
To test for preventive activity, young plants are sprayed with the preparation of active compound at the stated rate of application. One day after this treatment, the plants are inoculated with an aqueous spore suspension of Alternaria solani. The plants remain for one day in an incubation cabinet at approximately 22° C. and a relative atmospheric humidity of 100%. Then the plants are placed in an incubation cabinet at approximately 20° C. and a relative atmospheric humidity of 96%.
The test is evaluated 7 days after the inoculation. 0% means an efficacy which corresponds to that of the untreated control while an efficacy of 100% means that no disease is observed.

Leptosphaeria nodorum = test: In vivo preventive test on Leptosphaeria nodorum (wheat); conditions: preventive spray, 500 ppm of active ingredient, evaluated 7-9 days after inoculation
Experimental: In Vivo Preventive Test on Leptosphaeria nodorum (Wheat)
Solvent: 49 parts by weight of N,N-dimethylacetamide
as §4, §3
as §5, with “with a” for “with the”, “of Leptosphaeria nodorum.” for “of Pyrenophora teres.”, “approximately 22°” for “approximately 20°”, “approximately 90%.” for “approximately 80%.”
The test is evaluated 7-9 days after the inoculation. 0% means an efficacy which corresponds to that of the untreated control, while an efficacy of 100% means that no disease is observed.
Under these conditions, good (at least 70%) to excellent protection (at least 95%) is observed at a dose of 500 ppm of active ingredient with the following compounds from table D: […]

[2] = HPLC, reversed-phase C 18, 40° C.
[3] = HPLC on reversed-phase column (C 18), 40° C.

Row | Structure (SMILES) | logP [1, 2] | Efficacy (Sphaerotheca fuliginea) | Efficacy (Pyrenophora teres) | Efficacy (Alternaria solani) | logP [1, 3] | Efficacy (Leptosphaeria nodorum)
1 | Cn1nc(C(F)F)c(C(=O)NC2(c3ccc(Cl)cc3Cl)CC2)c1F [Example 38] | 3.89 | 89% | 95% | 94% |  | 
2 | Cn1nc(C(F)F)c(C(=O)NCc2ccccc2C2CC2)c1F [Example 65] | 2.78 | 85% | 94% | 90% |  | 
3 | Cn1nc(C(F)F)c(C(=O)NC(c2ccc(Cl)cc2Cl)C(F)(F)F)c1F (stereo not shown) [Example 40] | 4.19 | 83% | 95% | 94% |  | 
4 | CC(C)c1ccccc1CN(C(=O)c1c(C(F)F)nn(C)c1F)C1CCC1 [Example 70] | 3.90 | 100% | 100% | 90% |  | 
5 | CC(NC(=O)c1c(C(F)F)nn(C)c1Cl)c1ccccc1C(F)(F)F (stereo not shown) [Example 82] | 3.11 | 94% | 95% | 100% |  | 
6 | CCC(NC(=O)c1c(C(F)F)nn(C)c1Cl)c1ccc(Cl)cc1Cl (stereo not shown) [Example 191] |  | 100% | 100% | 95% | 3.79 | 
7 | CCc1ccccc1CN(C(=O)c1c(C(F)F)nn(C)c1F)C1CCC1 [Example 12] | 3.63 | 95% | 100% | 90% |  | 
8 | CC(NC(=O)c1c(C(F)F)nn(C)c1F)c1ccc(Cl)cc1Cl (stereo not shown) [Example 36] | 4.39 | 93% | 100% | 94% |  | 
9 | Cn1nc(C(F)F)c(C(=O)NC(C)(C)c2ccccc2Cl)c1F [Example 26] | 2.92 | 88% |  | 94% |  | 
10 | CC(NC(=O)c1c(C(F)F)nn(C)c1F)c1ccccc1C(F)(F)F (stereo not shown) [Example 84] | 2.96 | 90% | 100% | 100% |  | 
11 | CC(NC(=O)c1c(C(F)F)nn(C)c1F)c1ncc(C(F)(F)F)cc1Cl (racemic) [Example 175] |  | 95% | 100% | 95% | 3.19 | 
12 | CC(NC(=O)c1c(C(F)F)nn(C)c1F)c1ccccc1Cl (racemic) [Example 24] | 2.75 | 89% | 100% | 94% |  | 
13 | CC(NC(=O)c1c(C(F)F)nn(C)c1Cl)c1ccc(Cl)cc1Cl (stereo not shown) [Example 33] | 4.39 | 96% | 100% | 95% |  | 
14 | CC(NC(=O)c1c(C(F)F)nn(C)c1Cl)c1ncc(C(F)(F)F)cc1Cl (racemic) [Example 177] |  | 93% | 100% | 90% | 3.48 | 
15 | CCC(NC(=O)c1c(C(F)F)nn(C)c1F)c1ccc(Cl)cc1Cl (stereo not shown) [Example 192] |  | 100% | 100% | 95% | 3.61 | 
16 | CC(NC(=O)c1c(C(F)F)nn(C)c1F)c1ccc(-c2ccccc2)cc1 (racemic) [Example 169] |  | 89% | 100% | 94% | 3.46 | 
17 | C=CCN(Cc1ccccc1C(C)C)C(=O)c1c(C(F)F)nn(C)c1F [Example 71] | 3.66 | 91% | 95% | 95% |  | 
18 | Cn1nc(C(F)F)c(C(=O)NCc2ccc(C(C)(C)C)cc2)c1Cl [Example 136] |  |  |  |  | 3.58 | 70%
19 | CCc1ccccc1CN(C)C(=O)c1c(C(F)F)nn(C)c1F [Example 15] | 2.81 | 83% | 95% | 95% |  | 

Row | Structure (SMILES) | logP [1, 2] | Efficacy (Sphaerotheca fuliginea) | Efficacy (Pyrenophora teres) | Efficacy (Alternaria solani) | logP [1, 3] | Efficacy (Leptosphaeria nodorum)
20 | CCN(Cc1c(Cl)cccc1C(F)(F)F)C(=O)c1c(C(F)F)nn(C)c1F [Example 91] | 3.22 | 95% | 95% | 100% |  | 
21 | C#CCN(Cc1ccccc1C(C)C)C(=O)c1c(C(F)F)nn(C)c1F [Example 73] | 3.37 | 98% | 100% | 95% |  | 
22 | CCc1ccccc1CN(CC)C(=O)c1c(C(F)F)nn(C)c1F [Example 13] | 3.13 | 90% | 95% | 95% |  | 
23 | CN(Cc1ccccc1[Si](C)(C)C)C(=O)c1c(C(F)F)nn(C)c1F [Example 103] | 3.78 | 91% | 70% | 90% |  | 
24 | CC(c1cc(Cl)ccc1Cl)N(C)C(=O)c1c(C(F)F)nn(C)c1Cl (stereo not shown) [Example 55] | 3.33 | 83% | 100% | 95% |  | 
25 | Cn1nc(C(F)F)c(C(=O)NCc2ccc(C(C)(C)C)cc2)c1F [Example 135] |  |  |  |  | 3.42 | 75%
26 | Cn1nc(C(F)F)c(C(=O)NC(C)(C)c2cc(Cl)cc(Cl)c2)c1Cl [Example 112] |  | 95% | 95% | 80% | 3.73 | 
27 | CC(NC(=O)c1c(C(F)F)nn(C)c1F)c1ccc(OCc2ccccc2)cc1 (racemic) [Example 162] |  | 88% | 100% | 100% | 3.41 | 
28 | CC(C)c1ccccc1CN(C(=S)c1c(C(F)F)nn(C)c1F)C1CCC1 [Example 75] | 4.63 | 100% | 100% |  |  | 
29 | CC(NC(=O)c1c(C(F)F)nn(C)c1Cl)c1ccccc1Cl (racemic) [Example 20] | 2.92 | 94% | 95% | 95% |  | 
30 | C#CCN(Cc1ccccc1CC)C(=O)c1c(C(F)F)nn(C)c1F [Example 17] | 3.10 | 94% | 100% | 80% |  | 
31 | CC(C)c1ccccc1CN(CC(F)F)C(=O)c1c(C(F)F)nn(C)c1F [Example 78] | 3.49 | 93% | 100% | 100% |  | 
32 | CC(NC(=O)c1c(C(F)F)nn(C)c1Cl)c1cc(Cl)ccc1Cl (stereo not shown) [Example 50] | 4.39 | 98% | 95% | 95% |  | 
33 | CC(c1cc(Cl)cc(Cl)c1)N(C)C(=O)c1c(C(F)F)nn(C)c1Cl (stereo not shown) [Example 116] |  | 75% | 100% | 95% | 3.65 | 
34 | Cn1nc(C(F)F)c(C(=O)NC2(c3ccc(Cl)c(C(F)(F)F)c3)CC2)c1F [Example 125] |  | 100% | 95% |  | 3.27 | 
35 | Cn1nc(C(F)F)c(C(=O)NC(c2ccccc2Cl)C(F)(F)F)c1Cl (racemic) [Example 19] | 3.33 | 84% |  | 90% |  | 
36 | Cn1nc(C(F)F)c(C(=O)NC2(c3cccc(C(F)(F)F)c3)CCCC2)c1F [Example 108] |  | 85% | 94% |  | 3.65 | 
37 | CC(NC(=O)c1c(C(F)F)nn(C)c1F)c1cc(Cl)ccc1Cl (stereo not shown) [Example 53] | 4.39 | 95% | 95% | 94% |  | 
